Laboratory results reported in patent publication US20040229936A1, “Treatment of hepatitis C virus infection with sesquiterpene lactones” (priority 2003, published 2004).

Legend:
[1] = system: HCV RNA replication in Huh-7 cells containing HCV sub-genomic replicons (Ava.5); assay: Inhibition of HCV RNA replication (replicon cells, RT and Q-PCR, normalised to GADPH); details: for EC50: Hepatitis C virus, 24 h, read-out: EC50 value (effective concentration at which HCV RNA replication was inhibited by 50%)
Method: Huh-7 cells containing HCV sub-genomic replicons (Ava.5) were maintained in DMEM supplemented with 10% heat-inactivated FCS in a humidified atmosphere containing 5% of CO2. The medium also contained 1 mg/mL G418 (an aminoglycosidic antibiotic agent obtained from Promega, WI) as a selective pressure for the maintenance of HCV replicon's RNA replication. […] Cells were treated with sesquiterpene lactones and control compounds at various concentrations. Then, cells were harvested after 24 hr of the treatment. Subsequently, total cellular RNA's were extracted and quantified as follows.
Total RNA of cells was extracted using RNeasy Mini Kit (QIAGEN). The concentration of total RNA was measured by absorption at 260 nm. […] RNA was added with RNase-free ddH2O to a final volume of 10.5 μL and denatured for 10 min at 65° C. Reverse transcription (RT) reactions were carried out at 42° C. for 1 hr using Expand-RT (Roche Biochemicals, Mannheim, Germany) in a total volume of 20 μL containing a previously denatured primer-RNA mixture, 1 mM each of deoxynucleotide triphosphates (dNTPs), 50 units reverse transcriptase, and 20 units RNase inhibitor (Promega, Madison, Wis.).
Quantitative PCR (Q-PCR) was carried out by LightCycler-DNA Master using SYBR Green 1 for real-time detection of double-stranded DNA (dsDNA) (Roche Diagnostics GmbH, Mannheim, Germany). The intensity of fluorescence was recorded versus PCR cycle numbers and the relative amounts of HCV RNA were calculated corresponding to the standard curve. The standard curve was derived from five serial dilutions of reference DNA, the corresponding cDNA of HCV RNA, under criteria recommended by the supplier.
The relative copy numbers HCV RNA and a house-keeping gene, glyceraldehyde-3-phosphate dehydrogenase (GADPH), were determined by Q-PCR utilizing the following primer sets:
PCR was performed as followed: (i) denaturing conditions: 95° C., 60 sec; (ii) amplification conditions: ramp to 95° C., 0 sec; 64° C., 10 sec; 72° C., 10 sec. The specificity of an amplification reaction was determined by performing a melting curve analysis with a temperature range from 65° C. to 95° C.
HCV RNA copy numbers were divided by their corresponding GADPH copy numbers in the same sample for normalization. Effect of sesquiterpene lactones on HCV RNA replication was represented by “relative copy number,” which was obtained by comparing HCV RNA copy numbers with sesquiterpene lactones treatment to HCV RNA copy numbers without sesquiterpene lactones treatment. The latter was designated as 100%. All measurements were performed in triplicates to reach statistical significance.

[2] = system: Huh-7 cells containing HCV sub-genomic replicons (Ava.5); assay: Inhibition of cell growth (MTS cell viability / cytotoxicity assay); details: Hepatitis C virus, read-out: IC50 value (concentration at which cell growth was inhibited by 50%)
Method: Huh-7 cells containing HCV sub-genomic replicons (Ava.5) were provided by Apath, LLC. […] Cells were maintained in Dulbecco's modified Eagle's medium (DMEM) supplemented with 10% fetal calf serum (FCS) in a humidified atmosphere containing 5% of CO2.
MTS and PMS, both in powder form, were purchased from Sigma or Promega. MTS was dissolved in PBS (2 mg/mL) and PMS (0.38 mg/mL) was dissolved in ddH2O as stock solutions. […] Prior to the assay, a 2 mL MTS/PMS solution containing MTS and PMS (20:1) was added to the cells with 8 mL of phenol red-free DMEM. The cell culture medium was then aspirated off, washed with PBS, and 100 μL of the MTS/PMS mixture was added into each well. After incubation at room temperature for 2 hr, optical densities of each sample were measured at OD490 with a 96-well microtiter plate reader. Data were obtained with six repeats for each treatment.

Row | Compound | EC50 [1] | other results
1 | CC1=CCCC2(C)OC2C2OC(=O)C(CN(C)C)C2CC1 (centres unmarked) [Compound 44, 12-Dimethylaminomethyl-4,8-dimethyl-3,14-dioxa-tricyclo[9.3.0.02,4]tetradec-7-en-13-one] | ≤ 3 µM | 
2 | CCN(CC)CC1C(=O)OC2C1CCC(C)=CCCC1(C)OC21 (centres unmarked) [Compound 45, 12-Diethylaminomethyl-4,8-dimethyl-3,14-dioxa-tricyclo[9.3.0.02,4]tetradec-7-en-13-one] | ≤ 3 µM | 
3 | CC1=CCCC2(C)OC2C2OC(=O)C(CN3CCCC3)C2CC1 (centres unmarked) [Compound 46, 4,8-Dimethyl-12-pyrrolidin-1-ylmethyl-3,14-dioxa-tricyclo[9.3.0.02,4]tetradec-7-en-13-one] | ≤ 3 µM | 
4 | CC1=CCCC2(C)OC2C2OC(=O)C(CN3CCCCC3)C2CC1 (centres unmarked) [Compound 47, 4,8-Dimethyl-12-piperidin-1-ylmethyl-3,14-dioxa-tricyclo[9.3.0.02,4]tetradec-7-en-13-one] | ≤ 3 µM | 
5 | CC1=CCCC2(C)OC2C2OC(=O)C(CN3CCCCCC3)C2CC1 (centres unmarked) [Compound 48, 12-Azepan-1-ylmethyl-4,8-dimethyl-3,14-dioxa-tricyclo[9.3.0.02,4]tetradec-7-en-13-one] | ≤ 3 µM | 
6 | CC1=CCCC2(C)OC2C2OC(=O)C(CN3CCOCC3)C2CC1 (centres unmarked) [Compound 49, 4,8-Dimethyl-12-morpholin-4-ylmethyl-3,14-dioxa-tricyclo[9.3.0.02,4]tetradec-7-en-13-one] | ≤ 6 µM | 
7 | CC1=CCCC2(C)OC2C2OC(=O)C(CN3CCCC3C(=O)O)C2CC1 (centres unmarked) [Compound 50, 1-(4,8-Dimethyl-13-oxo-3,14-dioxa-tricyclo[9.3.0.02,4]tetradec-7-en-12-ylmethyl)-pyrrolidine-2-carboxylic acid] | ≤ 3 µM | IC50 [2]: 8.1 µM
8 | CC1=CCCC2(C)OC2C2OC(=O)C(CSCC(N)C(=O)O)C2CC1 (centres unmarked) [Compound 53, 2-Amino-3-(4,8-dimethyl-13-oxo-3,14-dioxa-tricyclo[9.3.0.02,4]tetradec-7-en-12-ylmethylsulfanyl)-propionic acid] | ≤ 6 µM | 
9 | IFNα |  | inhibition of HCV RNA replication ([1]; 50 IU/1 mL of IFNα alone): 25%; inhibition of HCV RNA replication ([1]; 100 IU/mL of IFNα alone): 40%
